For this assay, the target named is T1, CDK2 (Homo sapiens, UniProt P24941).
T1 construct: High-Throughput Measurement of Cellular Endogenous CDK2; endogenous in cells; host or cells: OVCAR3
The assay can be described thus: Inhibition of CDK2: phospho-Rb (S807/811) HTRF measurement in OVCAR3 cells, 24 h. The assay is classed as cell-based. The settings on record: 24 h compound treatment, read-out: pRB_OVCAR3_24h. Put shortly: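 IC50 came from a four-parameter fit of DMSO-normalized TR-FRET ratios (665/620 nm) reporting phospho-Rb S807/811. Lysates were taken from OVCAR3 cultures treated 24 h with compound (0.3 to 10,000 nM) and incubated 4 h at room temperature with the antibody pair.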
A general note: In TR-FRET formats the signal depends on donor and acceptor labels being close together.
For the molecule `Cn1nc(N2CCC(=O)NC2=O)c2ccc(C3CCN(CC4CCN(c5cc(C#N)cc(S(=O)(=O)N6CCC(Nc7ncc(Cl)cn7)CC6)c5)CC4)CC3)cc21` [Example 160, 3-((4-((5-chloropyrimidin-2-yl)amino)piperidin-1-yl)sulfonyl)-5-(4-((4-(3-(2,4-dioxotetrahydropyrimidin-1(2H)-yl)-1-methyl-1H-indazol-6-yl)piperidin-1-yl)methyl)piperidin-1-yl)benzonitrile 2,2,2-trifluoroacetate], the IC50 is 0.1 to 0.5 µM.
Take `Cn1nc(N2CCC(=O)NC2=O)c2ccc(C3CCN(CC4CCN(c5ccc(C#N)c(S(=O)(=O)N6CCC(Nc7ncc(Cl)cn7)CC6)c5)CC4)CC3)cc21` [Example 161, 2-((4-((5-chloropyrimidin-2-yl)amino)piperidin-1-yl)sulfonyl)-4-(4-((4-(3-(2,4-dioxotetrahydropyrimidin-1(2H)-yl)-1-methyl-1H-indazol-6-yl)piperidin-1-yl)methyl)piperidin-1-yl)benzonitrile]: the IC50 was greater than 2.5 µM.
On to `Cn1nc(N2CCC(=O)NC2=O)c2ccc(C3CCN(Cc4cnn(C5CCN(S(=O)(=O)N6CCC(Nc7ncc(Cl)cn7)CC6)CC5)c4)CC3)cc21` [Example 163, 1-(6-(1-((1-(1-((4-((5-chloropyrimidin-2-yl)amino)piperidin-1-yl)sulfonyl)piperidin-4-yl)-1H-pyrazol-4-yl)methyl)piperidin-4-yl)-1-methyl-1H-indazol-3-yl)dihydropyrimidine-2,4(1H,3H)-dione], for which the IC50 is greater than 2.5 µM.
To `Cn1nc(N2CCC(=O)NC2=O)c2ccc(C3CCN(CC4(C#N)CCN(c5cccc(S(=O)(=O)N6CCC(Nc7ncc(Cl)cn7)CC6)c5)CC4)CC3)cc21` [Example 164, 1-(3-((4-((5-chloropyrimidin-2-yl)amino)piperidin-1-yl)sulfonyl)phenyl)-4-((4-(3-(2,4-dioxotetrahydropyrimidin-1(2H)-yl)-1-methyl-1H-indazol-6-yl)piperidin-1-yl)methyl)piperidine-4-carbonitrile] belongs greater than 2.5 µM; to `Cn1nc(N2CCC(=O)NC2=O)c2ccc(N3CCC(CN4C5CCC4CN(c4cccc(S(=O)(=O)N6CCC(Nc7ncc(Cl)cn7)CC6)c4)C5)CC3)cc21` [Example 166, 1-(6-(4-((3-(3-((4-((5-chloropyrimidin-2-yl)amino)piperidin-1-yl)sulfonyl)phenyl)-3,8-diazabicyclo[3.2.1]octan-8-yl)methyl)piperidin-1-yl)-1-methyl-1H-indazol-3-yl)dihydropyrimidine-2,4(1H,3H)-dione], greater than 2.5 µM; to `Cn1c(=O)n(C2CCC(=O)NC2=O)c2cc(C3CCN(CC4CCN(c5cccc(S(=O)(=O)N6CCC(Nc7ncc(C(F)(F)F)cn7)CC6)c5)CC4)CC3)ccc21` (stereo not shown) [Example 167, 3-(3-methyl-2-oxo-6-(1-((1-(3-((4-((5-(trifluoromethyl)pyrimidin-2-yl)amino)piperidin-1-yl)sulfonyl)phenyl)piperidin-4-yl)methyl)piperidin-4-yl)-2,3-dihydro-1H-benzo[d]imidazol-1-yl)piperidine-2,6-dione], 0.5 to 2.5 µM.
For `Cn1nc(N2CCC(=O)NC2=O)c2ccc(C3CCN(Cc4cc(S(=O)(=O)N5CCC(Nc6ncc(OC(F)F)cn6)CC5)ccc4C#N)CC3)cc21` [Example 169, 4-((4-((5-(difluoromethoxy)pyrimidin-2-yl)amino)piperidin-1-yl)sulfonyl)-2-((4-(3-(2,4-dioxotetrahydropyrimidin-1(2H)-yl)-1-methyl-1H-indazol-6-yl)piperidin-1-yl)methyl)benzonitrile] the value was 0.1 to 0.5 µM; for `Cn1nc(N2CCC(=O)NC2=O)c2ccc(C3CCN(CC4CCN(c5cc(C(F)(F)F)cc(S(=O)(=O)N6CCC(Nc7ncc(Cl)cn7)CC6)c5)CC4)CC3)cc21` [Example 170, 1-(6-(1-((1-(3-((4-((5-chloropyrimidin-2-yl)amino)piperidin-1-yl)sulfonyl)-5-(trifluoromethyl)phenyl)piperidin-4-yl)methyl)piperidin-4-yl)-1-methyl-1H-indazol-3-yl)dihydropyrimidine-2,4(1H,3H)-dione], 0.5 to 2.5 µM.
To `O=C1CCC(n2c(=O)n(C3CCN(CC4CCN(c5cccc(S(=O)(=O)N6CCC(Nc7ncc(C(F)(F)F)cn7)CC6)c5)CC4)CC3)c3ccccc32)C(=O)N1` (stereo not shown) [Example 171, 3-(2-oxo-3-(1-((1-(3-((4-((5-(trifluoromethyl)pyrimidin-2-yl)amino)piperidin-1-yl)sulfonyl)phenyl)piperidin-4-yl)methyl)piperidin-4-yl)-2,3-dihydro-1H-benzo[d]imidazol-1-yl)piperidine-2,6-dione] belongs 0.1 to 0.5 µM; to `Cn1nc(N2CCC(=O)NC2=O)c2ccc(C3CCN(CC4CCN(c5cccc(S(=O)(=O)N6CC7(CC(Nc8ncc(C(F)(F)F)cn8)C7)C6)c5)CC4)CC3)cc21` [Example 172, 1-(1-methyl-6-(1-((1-(3-((6-((5-(trifluoromethyl)pyrimidin-2-yl)amino)-2-azaspiro[3.3]heptan-2-yl)sulfonyl)phenyl)piperidin\-4-yl)methyl)piperidin-4-yl)-1H-indazol-3-yl)dihydropyrimidine-2,4(1H,3H)-dione], greater than 2.5 µM.
In the case of `Cn1c(=O)n(C2CCC(=O)NC2=O)c2cccc(C3CCN(CC4CCN(c5cc(C(F)(F)F)cc(S(=O)(=O)N6CCC(Nc7ncc(Cl)cn7)CC6)c5)CC4)CC3)c21` (stereo not shown) [Example 173, 3-(4-(1-((1-(3-((4-((5-chloropyrimidin-2-yl)amino)piperidin-1-yl)sulfonyl)-5-(trifluoromethyl)phenyl)piperidin-4-yl)methyl)piperidin-4-yl)-3-methyl-2-oxo-2,3-dihydro-1H-benzo[d]imidazol-1-yl)piperidine-2,6-dione], the IC50 lay in the range of 0.5 to 2.5 µM.
Take `Cn1c(=O)n(C2CCC(=O)NC2=O)c2cccc(C3CCN(CC4CCN(c5cc(C(F)(F)F)cc(S(=O)(=O)N6CCC(Nc7ncc(OC(F)F)cn7)CC6)c5)CC4)CC3)c21` (stereo not shown) [Example 176, 3-(4-(1-((1-(3-((4-((5-(difluoromethoxy)pyrimidin-2-yl)amino)piperidin-1-yl)sulfonyl)-5-(trifluoromethyl)phenyl)piperidin-4-yl)methyl)piperidin-4-yl)-3-methyl-2-oxo-2,3-dihydro-1H-benzo[d]imidazol-1-yl)piperidine-2,6-dione]: the IC50 lay within 0.5 to 2.5 µM.
Consider `Cn1nc(N2CCC(=O)NC2=O)c2ccc(C3CCN(CC4CCN(c5cccc(S(=O)(=O)N6CC(Nc7ncc(C(F)(F)F)cn7)C6)c5)CC4)CC3)cc21` [Example 178, 1-(1-methyl-6-(1-((1-(3-((3-((5-(trifluoromethyl)pyrimidin-2-yl)amino)azetidin-1-yl)sulfonyl)phenyl)piperidin-4-yl)methyl)piperidin-4-yl)-1H-indazol-3-yl)dihydropyrimidine-2,4(1H,3H)-dione], for which the IC50 is greater than 2.5 µM.
To `Cn1nc(N2CCC(=O)NC2=O)c2ccc(CN3CCN(c4cccc(S(=O)(=O)N5CCC(Nc6ncc(C(F)(F)F)cn6)CC5)c4)CC3)cc21` [Example 179, 1-(1-methyl-6-((4-(3-((4-((5-(trifluoromethyl)pyrimidin-2-yl)amino)piperidin-1-yl)sulfonyl)phenyl)piperazin-1-yl)methyl)-1H-indazol-3-yl)dihydropyrimidine-2,4(1H,3H)-dione] belongs 0.5 to 2.5 µM; to `O=C1CCN(c2cccc(C3CCN(CC4CCN(c5cccc(S(=O)(=O)N6CCC(Nc7ncc(Cl)cn7)CC6)c5)CC4)CC3)c2)C(=O)N1` [Example 182, 1-(3-(1-((1-(3-((4-((5-chloropyrimidin-2-yl)amino)piperidin-1-yl)sulfonyl)phenyl)piperidin-4-yl)methyl)piperidin-4-yl)phenyl) dihydropyrimidine-2,4(1H,3H)-dione], 0.1 to 0.5 µM; to `Cn1nc(N2CCC(=O)NC2=O)c2ccc(C3CCN(Cc4ccnc(S(=O)(=O)N5CCC(Nc6ncc(C(F)(F)F)cn6)CC5)c4)CC3)cc21` [Example 183, 1-(1-methyl-6-(1-((2-((4-((5-(trifluoromethyl)pyrimidin-2-yl)amino)piperidin-1-yl)sulfonyl)pyridin-4-yl)methyl)piperidin-4-yl)-1H-indazol-3-yl)dihydropyrimidine-2,4(1H,3H)-dione], 0.5 to 2.5 µM.
Take `N#Cc1ccc(S(=O)(=O)N2CCC(Nc3ncc(Cl)cn3)CC2)cc1N1CCC(CN2CCN(c3cc4c(cc3F)C(=O)N(C3CCC(=O)NC3=O)C4=O)CC2)CC1` (stereo not shown) [Example 185, 4-((4-((5-chloropyrimidin-2-yl)amino)piperidin-1-yl)sulfonyl)-2-(4-((4-(2-(2,6-dioxopiperidin-3-yl)-6-fluoro-1,3-dioxoisoindolin-5-yl)piperazin-1-yl)methyl)piperidin-1-yl)benzonitrile]: the IC50 lay within 0.5 to 2.5 µM.
To `O=C1CCC(n2c(=O)n(CC3CCN(CC4CCN(c5cccc(S(=O)(=O)N6CCC(Nc7ncc(C(F)(F)F)cn7)CC6)c5)CC4)CC3)c3ccccc32)C(=O)N1` (stereo not shown) [Example 186, 3-(2-oxo-3-((1-((1-(3-((4-((5-(trifluoromethyl)pyrimidin-2-yl)amino)piperidin-1-yl)sulfonyl)phenyl)piperidin-4-yl)methyl)piperidin-4-yl)methyl)-2,3-dihydro-1H-benzo[d]imidazol-1-yl)piperidine-2,6-dione] belongs 0.001 to 0.1 µM; to `Cn1nc(N2CCC(=O)NC2=O)c2ccc(C3CCN(CC4CCN(c5cccc(S(=O)(=O)N6CCC(Nc7ncc(Cl)cn7)CC6)c5F)CC4)CC3)cc21` [Example 187, 1-(6-(1-((1-(3-((4-((5-chloropyrimidin-2-yl)amino)piperidin-1-yl)sulfonyl)-2-fluorophenyl)piperidin-4-yl)methyl)piperidin-4-yl)-1-methyl-1H-indazol-3-yl)dihydropyrimidine-2,4(1H,3H)-dione], 0.1 to 0.5 µM.
